Molecules are shown by their SMILES. A value given as a limit tells only on which side of the number the result lay.

Drawing on US11078168B2, “Substituted N-hydroxyamidinoheterocycles as modulators of indoleamine 2,3-dioxygenase” (PHENEX DISCOVERY VERWALTUNGS-GMBH, priority 2016, dated 2021), this text covers IC50 for 9 compounds.

This test deals with T1, Indoleamine 2,3-dioxygenase (Homo sapiens, UniProt P14902).
T1 construct: endogenous in cells; host or cells: SKOV-3 (ATCC HTB-77), stimulated with interferon gamma
T1 sequence (P14902 whole entry): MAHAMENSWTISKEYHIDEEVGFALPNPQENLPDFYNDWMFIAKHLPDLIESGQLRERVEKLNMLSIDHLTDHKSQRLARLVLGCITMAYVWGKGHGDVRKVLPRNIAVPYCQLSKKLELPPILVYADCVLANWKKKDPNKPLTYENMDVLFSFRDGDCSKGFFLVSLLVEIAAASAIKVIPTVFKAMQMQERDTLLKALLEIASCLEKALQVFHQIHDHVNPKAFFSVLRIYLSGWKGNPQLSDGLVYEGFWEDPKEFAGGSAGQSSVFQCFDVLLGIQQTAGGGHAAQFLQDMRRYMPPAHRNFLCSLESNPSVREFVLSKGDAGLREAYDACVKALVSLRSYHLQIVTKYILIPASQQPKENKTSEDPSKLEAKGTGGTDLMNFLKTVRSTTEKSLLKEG
Nature of the test: SKOV-3 cellular Indoleamine 2,3-dioxygenase assay. Particulars: SKOV-3 cells, 50 ng/ml Interferon gamma, 100 μM L-Tryptophan, 24 hours, N-Formylkynurenin fluorescence detection; read-out: cell based activity. In short, it runs like this: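 SKOV-3 cells stimulated with 50 ng/ml interferon gamma, exposed to compound dilutions with L-tryptophan at 100 µM final for 24 h at 37 °C. N-formylkynurenine detected by 200 mM 3-methylpiperidine, 65 °C for 20 min, fluorescence ex 405/em 535 nm.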
With `CS(=O)(=O)Nc1ccc(C(=O)NCCSc2nonc2C(=NO)Nc2ccc(F)c(Cl)c2)cn1` [Example 121, N-(2-((4-(N-(3-Chloro-4-fluorophenyl)-N′-hydroxycarbamimidoyl)-1,2,5-oxadiazol-3-yl)thio)ethyl)-6-(methylsulfonamido)nicotinamide], the IC50 lay in the range of 100 to 1000 nM.

For the compound `CS(=N)(=O)c1ccc(C(=O)NCCSc2nonc2C(=NO)Nc2ccc(F)c(C(F)F)c2)cc1` (stereo not drawn) [Example 122, N-(2-((4-(N-(3-(Difluoromethyl)-4-fluorophenyl)-N′-hydroxycarbamimidoyl)-1,2,5-oxadiazol-3-yl)thio)ethyl)-4-(S-methylsulfonimidoyl)benzamide], the IC50 was below 100 nM. As to `O=C(NCCSc1nonc1C(=NO)Nc1ccc(F)c(Cl)c1)C1(O)CNC1` [Example 123, N-(2-((4-(N-(3-Chloro-4-fluorophenyl)-N′-hydroxycarbamimidoyl)-1,2,5-oxadiazol-3-yl)thio)ethyl)-3-hydroxyazetidine-3-carboxamide], the IC50 is 100 to 1000 nM. With `CCN1CC(O)(C(=O)NCCSc2nonc2C(=NO)Nc2ccc(F)c(C(F)(F)F)c2)C1` [Example 124, 1-Ethyl-N-(2-((4-(N-(4-fluoro-3-(trifluoromethyl)phenyl)-N′-hydroxycarbamimidoyl)-1,2,5-oxadiazol-3-yl)thio)ethyl)-3-hydroxyazetidine-3-carboxamide], the IC50 is below 100 nM.

In the case of `CN1CCC1C(=O)NCCSc1nonc1C(=NO)Nc1ccc(F)c(C(F)F)c1` (stereo not drawn) [Example 124/1, N-(2-((4-(N-(3-(Difluoromethyl)-4-fluorophenyl)-N′-hydroxycarbamimidoyl)-1,2,5-oxadiazol-3-yl)thio)ethyl)-1-methylazetidine-2-carboxamide], the IC50 was below 100 nM. For `N#CC1(C(=O)NCCSc2nonc2C(=NO)Nc2ccc(F)c(C(F)F)c2)CNC1` [Example 125, 3-Cyano-N-(2-((4-(N-(3-(difluoromethyl)-4-fluorophenyl)-N′-hydroxycarbamimidoyl)-1,2,5-oxadiazol-3-yl)thio)ethyl)azetidine-3-carboxamide], the IC50 fell in the range of 100 to 1000 nM. Take `NC(=O)C1(C(=O)NCCSc2nonc2C(=NO)Nc2ccc(F)c(C(F)F)c2)CNC1` [Example 126]: the IC50 lay in the range of 100 to 1000 nM. Take `CS(=N)(=O)CC(=O)NCCSc1nonc1/C(=N/O)Nc1ccc(F)c(Br)c1` (stereo not drawn) [Example 127, N-(2-((4-(N-(3-Bromo-4-fluorophenyl)-N′-hydroxycarbamimidoyl)-1,2,5-oxadiazol-3-yl)thio)ethyl)-2-(S-methylsulfonimidoyl)acetamide]: the IC50 was below 100 nM. The figure for `NS(=O)(=O)NCC(=O)NCCSc1nonc1/C(=N/O)Nc1ccc(F)c(C(F)F)c1` [Example 128, N-(2-((4-(N-(3-(Difluoromethyl)-4-fluorophenyl)-N′-hydroxycarbamimidoyl)-1,2,5-oxadiazol-3-yl)thio)ethyl)-2-(sulfamoylamino)acetamide] is below 100 nM.
